# From paper PMC11436758, “Computer-aided drug design to generate a unique antibiotic family” (Nature Communications, 2024)
# Where “and” joins values, the source holds several entries; their conditions need not be identical. Equal entries are not always repeated.
# Columns and labels:
# [1] = tested on: Primary Skin Fibroblasts cells; experiment: Cell culture toxicity, Alamar Blue HS fluorescence; assay type: cell-based; conditions: Suppl Fig 9, Primary Skin Fibroblasts cells
# AcpS^N82/81A = molecular target: T1, AcpS^N82/81A (Escherichia coli, UniProt P24224, N81A); experiment: Inhibition of purified AcpS site-directed mutant by DNM0547; assay type: biochemical, E. coli; conditions: for AcpS rate nM/min, Mean / AcpS rate: Suppl Fig 3, [AcpS_N81A] 5nM; for AcpS rate: replicates
# T1 construct: 6x-His (C); made in house
# T1 sequence (P24224 whole entry N81A): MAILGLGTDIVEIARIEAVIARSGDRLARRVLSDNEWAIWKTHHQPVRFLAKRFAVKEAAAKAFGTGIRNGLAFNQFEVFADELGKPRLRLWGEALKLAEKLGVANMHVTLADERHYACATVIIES
# [2] = tested on: MRSA MMX 2119 (NRS23, USA100) and MRSA MMX 4675 (ATCC BAA-1556, USA300); experiment: Time kill; assay type: cell-based, S. aureus; conditions: for drop in surviving bacteria: two strains of MRSA
# Protocol: We also sought to determine if DNM0547 was bacteriostatic or bactericidal. Time kill experiments were carried out using increasing doses of DNM0547 against two different strains of MRSA.
# Supplementary Figure 5. Time kill of DNM0547 versus S. aureus. The time kill of DNM0547
# 4675 (ATCC BAA-1556, USA300) were determined. Representative experiments are shown. […]
# S. epidermidis (VISE) = experiment: MIC, clinical and laboratory strains; assay type: cell-based
# Outline: (§1)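 CLSI broth microdilution in Mueller Hinton II broth, inoculum ~5 × 10^5 CFU/mL per well, incubated at 35 °C for ~18 h. MIC read as lowest drug concentration preventing visible growth.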
# S. aureus (MRSA) = experiment: MIC, clinical and laboratory strains; assay type: cell-based
# Outline: as §1
# S. aureus (VISA) = experiment: MIC, clinical and laboratory strains; assay type: cell-based
# Outline: as §1
smiles,measurement,setting,value
CC(C)c1cc(Cl)ccc1-c1cc(-c2nnn[nH]2)c(-c2ccc(Cl)cc2C(C)C)s1 [DNM0547],Fluorescence (FI),[1]; Conc. 2 ng/ml,921 FI and 814 FI and 995 FI
same,Fluorescence (FI),[1]; Conc. 100 ng/ml,911 FI and 909 FI and 816 FI and 747 FI
same,Fluorescence (FI),[1]; Conc. 2500 ng/ml,895 FI and 904 FI and 819 FI and 790 FI
same,Fluorescence (FI),[1]; Conc. 5000 ng/ml,907 FI and 820 FI and 922 FI and 909 FI
same,Fluorescence (FI),[1]; Conc. 20000 ng/ml,577 FI and 548 FI and 542 FI and 552 FI
same,Fluorescence (FI),[1]; Conc. 40000 ng/ml,62 FI and 57 FI and 54 FI
same,Fluorescence (FI),[1]; Conc. 100000 ng/ml,7 FI and 5 FI
same,IC50,AcpS^N82/81A,5 µM
same,"AcpS rate nM/min, Mean",AcpS^N82/81A; Drug Conc 1 uM,7.81 nM/min
same,AcpS rate,AcpS^N82/81A; Drug Conc 1 uM,7.96 nM/min and 7.81 nM/min and 7.64 nM/min
same,"AcpS rate nM/min, Mean",AcpS^N82/81A; Drug Conc 2 uM,6.86 nM/min
same,AcpS rate,AcpS^N82/81A; Drug Conc 2 uM,6.91 nM/min and 7.01 nM/min and 6.66 nM/min
same,"AcpS rate nM/min, Mean",AcpS^N82/81A; Drug Conc 4 uM,4.72 nM/min
same,AcpS rate,AcpS^N82/81A; Drug Conc 4 uM,4.74 nM/min and 4.76 nM/min and 4.66 nM/min
same,"AcpS rate nM/min, Mean",AcpS^N82/81A; Drug Conc 8 uM,3.23 nM/min
same,AcpS rate,AcpS^N82/81A; Drug Conc 8 uM,2.93 nM/min and 3.30 nM/min and 3.44 nM/min
same,"AcpS rate nM/min, Mean",AcpS^N82/81A; Drug Conc 16 uM,2.83 nM/min
same,AcpS rate,AcpS^N82/81A; Drug Conc 16 uM,3.20 nM/min and 2.39 nM/min and 2.90 nM/min
same,"AcpS rate nM/min, Mean",AcpS^N82/81A; Drug Conc 32 uM,1.69 nM/min
same,AcpS rate,AcpS^N82/81A; Drug Conc 32 uM,1.65 nM/min and 1.74 nM/min and 1.68 nM/min
same,"AcpS rate nM/min, Mean",AcpS^N82/81A; Drug Conc 64 uM,1.60 nM/min
same,AcpS rate,AcpS^N82/81A; Drug Conc 64 uM,1.52 nM/min and 1.63 nM/min and 1.65 nM/min
same,"AcpS rate nM/min, Mean",AcpS^N82/81A; Drug Conc 128 uM,1.34 nM/min
same,AcpS rate,AcpS^N82/81A; Drug Conc 128 uM,1.38 nM/min and 1.44 nM/min and 1.20 nM/min
same,remaining activity at 1 µM,"AcpS^N82/81A; read-out: % of untreated, Suppl Fig 3, [AcpS_N81A] 5nM, Drug Conc 1 uM, replicates",105%
same,remaining activity at 2 µM,"AcpS^N82/81A; read-out: % of untreated, Suppl Fig 3, [AcpS_N81A] 5nM, Drug Conc 2 uM, replicates",90.9%
same,remaining activity at 4 µM,"AcpS^N82/81A; read-out: % of untreated, Suppl Fig 3, [AcpS_N81A] 5nM, Drug Conc 4 uM, replicates",62.4%
same,remaining activity at 8 µM,"AcpS^N82/81A; read-out: % of untreated, Suppl Fig 3, [AcpS_N81A] 5nM, Drug Conc 8 uM, replicates",38.5%
same,remaining activity at 16 µM,"AcpS^N82/81A; read-out: % of untreated, Suppl Fig 3, [AcpS_N81A] 5nM, Drug Conc 16 uM, replicates",42.1%
same,remaining activity at 32 µM,"AcpS^N82/81A; read-out: % of untreated, Suppl Fig 3, [AcpS_N81A] 5nM, Drug Conc 32 uM, replicates",21.7%
same,remaining activity at 64 µM,"AcpS^N82/81A; read-out: % of untreated, Suppl Fig 3, [AcpS_N81A] 5nM, Drug Conc 64 uM, replicates",20%
same,remaining activity at 128 µM,"AcpS^N82/81A; read-out: % of untreated, Suppl Fig 3, [AcpS_N81A] 5nM, Drug Conc 128 uM, replicates",18.1%
same,drop in surviving bacteria,"[2]; 2x MIC, at 2 h and 6 h",three
same,drop in surviving bacteria,"[2]; 4x and 8x MIC, at 2 h",three
same,CFU/mL,"[2]; Suppl Fig 5a, S. aureus MMX 2119, 2X, 0 hr",7.70E+05 CFU/mL
same,CFU/mL,"[2]; Suppl Fig 5a, S. aureus MMX 2119, 2X, 2 hr",6.00E+02 CFU/mL
same,CFU/mL,"[2]; Suppl Fig 5a, S. aureus MMX 2119, 2X, 6 hr",3.00E+02 CFU/mL
same,CFU/mL,"[2]; Suppl Fig 5a, S. aureus MMX 2119, 2X, 24 hr",LOD
same,CFU/mL,"[2]; Suppl Fig 5a, S. aureus MMX 2119, 4X, 0 hr",7.70E+05 CFU/mL
same,CFU/mL,"[2]; Suppl Fig 5a, S. aureus MMX 2119, 4X, 2 hr",4.50E+02 CFU/mL
same,CFU/mL,"[2]; Suppl Fig 5a, S. aureus MMX 2119, 4X, 6 hr",1.50E+02 CFU/mL
same,CFU/mL,"[2]; Suppl Fig 5a, S. aureus MMX 2119, 4X, 24 hr",LOD
same,CFU/mL,"[2]; Suppl Fig 5a, S. aureus MMX 2119, 8X, 0 hr",7.70E+05 CFU/mL
same,CFU/mL,"[2]; Suppl Fig 5a, S. aureus MMX 2119, 8X, 2 hr",LOD
same,CFU/mL,"[2]; Suppl Fig 5a, S. aureus MMX 2119, 8X, 6 hr",LOD
same,CFU/mL,"[2]; Suppl Fig 5a, S. aureus MMX 2119, 8X, 24 hr",LOD
same,CFU/mL,"[2]; Suppl Fig 5b, S. aureus MMX 4657, 2X, 0 hr",1.01E+06 CFU/mL
same,CFU/mL,"[2]; Suppl Fig 5b, S. aureus MMX 4657, 2X, 2 hr",1.05E+03 CFU/mL
same,CFU/mL,"[2]; Suppl Fig 5b, S. aureus MMX 4657, 2X, 6 hr",LOD
same,CFU/mL,"[2]; Suppl Fig 5b, S. aureus MMX 4657, 2X, 24 hr",LOD
same,CFU/mL,"[2]; Suppl Fig 5b, S. aureus MMX 4657, 4X, 0 hr",1.01E+06 CFU/mL
same,CFU/mL,"[2]; Suppl Fig 5b, S. aureus MMX 4657, 4X, 2 hr",2.50E+02 CFU/mL
same,CFU/mL,"[2]; Suppl Fig 5b, S. aureus MMX 4657, 4X, 6 hr",LOD
same,CFU/mL,"[2]; Suppl Fig 5b, S. aureus MMX 4657, 4X, 24 hr",LOD
same,CFU/mL,"[2]; Suppl Fig 5b, S. aureus MMX 4657, 8X, 0 hr",1.01E+06 CFU/mL
same,CFU/mL,"[2]; Suppl Fig 5b, S. aureus MMX 4657, 8X, 2 hr",LOD
same,CFU/mL,"[2]; Suppl Fig 5b, S. aureus MMX 4657, 8X, 6 hr",LOD
same,CFU/mL,"[2]; Suppl Fig 5b, S. aureus MMX 4657, 8X, 24 hr",LOD
same,MIC,S. epidermidis (VISE); S. epidermidis (VISE) 2020,8 µg/mL
same,MIC,S. epidermidis (VISE); S. epidermidis (VISE) 2021,1 µg/mL
same,MIC,S. epidermidis (VISE); S. epidermidis (VISE) 2022,2 µg/mL
same,MIC,S. epidermidis (VISE); S. epidermidis (VISE) 2023,4 µg/mL
same,MIC,S. epidermidis (VISE); S. epidermidis (VISE) 2024,32 µg/mL
same,MIC,S. epidermidis (VISE); S. epidermidis (VISE) 2025,4 µg/mL
same,MIC,S. aureus (MRSA); S. aureus (MRSA) 2167,1 µg/mL
same,MIC,S. aureus (MRSA); S. aureus (MRSA) 2168,1 µg/mL
same,MIC,S. aureus (MRSA); S. aureus (MRSA) 2169,2 µg/mL
same,MIC,S. aureus (MRSA); S. aureus (MRSA) 2170,1 µg/mL
same,MIC,S. aureus (MRSA); S. aureus (MRSA) 2171,1 µg/mL
same,MIC,S. aureus (MRSA); S. aureus (MRSA) 2293,2 µg/mL
same,MIC,S. aureus (MRSA); S. aureus (MRSA) 2294,1 µg/mL
same,MIC,S. aureus (MRSA); S. aureus (MRSA) 2295,1 µg/mL
same,MIC,S. aureus (MRSA); S. aureus (MRSA) 2296,1 µg/mL
same,MIC,S. aureus (MRSA); S. aureus (MRSA) 2297,2 µg/mL
same,MIC,S. aureus (MRSA); S. aureus (MRSA) 3880,1 µg/mL
same,MIC,S. aureus (MRSA); S. aureus (MRSA) 5373,1 µg/mL
same,MIC,S. aureus (MRSA); S. aureus (MRSA) 5666,1 µg/mL
same,MIC,S. aureus (MRSA); S. aureus (MRSA) 5702,1 µg/mL
same,MIC,S. aureus (MRSA); S. aureus (MRSA) 5999,1 µg/mL
same,MIC,S. aureus (MRSA); S. aureus (MRSA) 6165,1 µg/mL
same,MIC,S. aureus (MRSA); S. aureus (MRSA) 6169,1 µg/mL
same,MIC,S. aureus (MRSA); S. aureus (MRSA) 6174,1 µg/mL
same,MIC,S. aureus (MRSA); S. aureus (MRSA) 6311,1 µg/mL
same,MIC,S. aureus (MRSA); S. aureus (MRSA) 6312,2 µg/mL
same,MIC,S. aureus (MRSA); S. aureus (MRSA) 6313,1 µg/mL
same,MIC,S. aureus (MRSA); S. aureus (MRSA) 6315,1 µg/mL
same,MIC,S. aureus (MRSA); S. aureus (MRSA) 6320,1 µg/mL
same,MIC,S. aureus (MRSA); S. aureus (MRSA) 6498,2 µg/mL
same,MIC,S. aureus (MRSA); S. aureus (MRSA) 6501,2 µg/mL
same,MIC,S. aureus (MRSA); S. aureus (MRSA) 6505,1 µg/mL
same,MIC,S. aureus (MRSA); S. aureus (MRSA) 6506,2 µg/mL
same,MIC,S. aureus (MRSA); S. aureus (MRSA) NRS382/2119,1 µg/mL
same,MIC,S. aureus (MRSA); S. aureus (MRSA) NRS383/2120,1 µg/mL
same,MIC,S. aureus (MRSA); S. aureus (MRSA) NRS384/2011,2 µg/mL
same,MIC,S. aureus (VISA); S. aureus (VISA) 1724,2 µg/mL
same,MIC,S. aureus (VISA); S. aureus (VISA) 2012,2 µg/mL
same,MIC,S. aureus (VISA); S. aureus (VISA) 2013,2 µg/mL
same,MIC,S. aureus (VISA); S. aureus (VISA) 2014,2 µg/mL
same,MIC,S. aureus (VISA); S. aureus (VISA) 2015,2 µg/mL
same,MIC,S. aureus (VISA); S. aureus (VISA) 2016,2 µg/mL
same,MIC,S. aureus (VISA); S. aureus (VISA) 2017,2 µg/mL
same,MIC,S. aureus (VISA); S. aureus (VISA) 2018,2 µg/mL
same,MIC,S. aureus (VISA); S. aureus (VISA) 2019,1 µg/mL
same,MIC,S. aureus (VISA); S. aureus (VISA) 2123,2 µg/mL
same,MIC,S. aureus (VISA); S. aureus (VISA) NRS1/1723,2 µg/mL
